# Results taken from patent US20240252488A1 (KOREA RESEARCH INSTITUTE OF CHEMICAL TECHNOLOGY, priority 2020, published 2024).
# Key:
# [1] = target: T1, MLKL (Homo sapiens, UniProt Q8NB16); assay: MLKL degradation assay in HepG2 cell line (western blot); format: cell-based; design: endogenous in cells; host or cells: HepG2 or HaCaT; settings: cell line not given; for Degradation assay (Degradation %) 1 μM: compound 1 μM; for Degradation assay (Degradation %) 10 μM: compound 10 μM
# T1 sequence (Q8NB16 1-471): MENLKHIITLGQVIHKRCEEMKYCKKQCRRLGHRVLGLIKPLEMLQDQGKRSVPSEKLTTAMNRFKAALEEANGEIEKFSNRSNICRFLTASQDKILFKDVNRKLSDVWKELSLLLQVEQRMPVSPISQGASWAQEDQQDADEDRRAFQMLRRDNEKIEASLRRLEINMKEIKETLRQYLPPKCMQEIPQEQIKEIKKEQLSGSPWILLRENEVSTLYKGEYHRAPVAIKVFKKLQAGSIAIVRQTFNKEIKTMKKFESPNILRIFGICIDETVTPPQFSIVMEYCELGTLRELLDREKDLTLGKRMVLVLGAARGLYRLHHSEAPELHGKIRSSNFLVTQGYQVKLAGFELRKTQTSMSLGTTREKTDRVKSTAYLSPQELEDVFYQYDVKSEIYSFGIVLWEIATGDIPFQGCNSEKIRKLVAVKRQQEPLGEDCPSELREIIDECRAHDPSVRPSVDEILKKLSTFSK
# Outline: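 Chemiluminescent western blot signal reports remaining MLKL protein in HepG2 cells after 20-24 h treatment with compound at a final 1 or 10 μM. Equal protein (10-15 μg, BCA) is loaded per lane.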
# [2] = target: T1, MLKL; assay: Measurement of binding affinity with MLKL receptor (competitive binding assay, Kd); design: made in house; host or cells: HEK 293 cell line (T7 phage in E. coli BL21-derived host is also described)
# Outline: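 Kd from an immobilized-ligand competition format: the DNA-tagged kinase from HEK 293 expression is eluted and quantified by qPCR. Compounds added from 111× DMSO stocks, final DMSO 0.9%.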
# [3] = test system: FADD−/− Jurkat cells; assay: Necroptosis inhibition assay, TNF-α-induced necroptosis (CellTiter-Glo 2.0); format: cell-based, human; settings: TNF-α 15 ng/mL; for Necroptosis inhibition assay (Rescue %) 1 μM: compound 1 μM; for Necroptosis inhibition assay (Rescue %) 10 μM: compound 10 μM
# Outline: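 Compound is added to cells at final concentrations of 0.1, 1 and 10 μM and left 30 minutes at room temperature. Necroptosis is induced with 15 ng/mL TNF-α, culture continues 20 to 24 hours at 37° C, and ATP-based luminescence reports viability.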
SMILES,Degradation assay (Degradation %) 1 μM [1],Degradation assay (Degradation %) 10 μM [1],Kd [2],Necroptosis inhibition assay (Rescue %) 1 μM [3],Necroptosis inhibition assay (Rescue %) 10 μM [3],Necroptosis inhibition assay (Rescue %) 1 μM ([3]; FADD−/− Jurkat cells),Necroptosis inhibition assay (Rescue %) 10 μM ([3]; FADD−/− Jurkat cells)
"Nc1ncc(-c2cnn(C3CCN(C(=O)COC4CCN(C(=O)C5CCN(c6ccc7c(c6)C(=O)N(C6CCC(=O)NC6=O)C7=O)CC5)CC4)CC3)c2)nc1C(=O)O[C@@H](C(=O)Nc1ccc(F)cc1)c1ccccc1 (stereo partly drawn) [TDH-398, (R)-2-((4-fluorophenyl)amino)-2-oxo-1-phenylethyl 3-amino-6-(1-(1-(2-((1-(1-(2-(2,6-dioxopiperidin-3-yl)-1,3-dioxoisoindolin-5-yl)piperidine-4-carbonyl)piperidin-4-yl)oxy)acetyl)piperidin-4-yl)-1H-pyrazol-4-yl)pyrazine-2-carboxylate]",88.25%,83.83%,8.9 nM,36.81%,30.39%,–,–
"Nc1ncc(-c2cnn(C3CCN(C(=O)COC4CCN(c5cccc6c5C(=O)N(C5CCC(=O)NC5=O)C6=O)CC4)CC3)c2)nc1C(=O)O[C@@H](C(=O)Nc1ccc(F)cc1)c1ccccc1 (stereo partly drawn) [TDH-399, (R)-2-((4-fluorophenyl)amino)-2-oxo-1-phenylethyl 3-amino-6-(1-(1-(2-((1-(2-(2,6-dioxopiperidin-3-yl)-1,3-dioxoisoindolin-4-yl)piperidin-4-yl)oxy)acetyl)piperidin-4-yl)-1H-pyrazol-4-yl)pyrazine-2-carboxylate]",74.40%,71.63%,7.6 nM,34.21%,27.35%,–,–
"Nc1ncc(-c2cnn(C3CCN(C(=O)CC4CCN(C(=O)C5CN(c6ccc7c(c6)C(=O)N(C6CCC(=O)NC6=O)C7=O)C5)CC4)CC3)c2)nc1C(=O)O[C@@H](C(=O)Nc1ccc(F)cc1)c1ccccc1 (stereo partly drawn) [TDH-401, (R)-2-((4-fluorophenyl)amino)-2-oxo-1-phenylethyl 3-amino-6-(1-(1-(2-(1-(1-(2-(2,6-dioxopiperidin-3-yl)-1,3-dioxoisoindolin-5-yl)azetidine-3-carbonyl)piperidin-4-yl)acetyl)piperidin-4-yl)-1H-pyrazol-4-yl)pyrazine-2-carboxylate]",74.27%,72.99%,6.8 nM,–,–,33.10%,28.25%
"Nc1ncc(-c2cnn(C3CCN(C(=O)CC4CCN(C(=O)CC5CCN(c6ccc7c(c6)C(=O)N(C6CCC(=O)NC6=O)C7=O)CC5)CC4)CC3)c2)nc1C(=O)O[C@@H](C(=O)Nc1ccc(F)cc1)c1ccccc1 (stereo partly drawn) [TDH-402, (R)-2-((4-fluorophenyl)amino)-2-oxo-1-phenylethyl 3-amino-6-(1-(1-(2-(1-(2-(1-(2-(2,6-dioxopiperidin-3-yl)-1,3-dioxoisoindolin-5-yl)piperidin-4-yl)acetyl)piperidin-4-yl)acetyl)piperidin-4-yl)-1H-pyrazol-4-yl)pyrazine-2-carboxylate]",65.36%,48.34%,7.7 nM,–,–,23.40%,19.16%
"Nc1ncc(-c2cnn(C3CCN(C(=O)CC4CCN(C(=O)C5CN(c6ccc7nnn(C8CCC(=O)NC8=O)c(=O)c7c6)C5)CC4)CC3)c2)nc1C(=O)O[C@@H](C(=O)Nc1ccc(F)cc1)c1ccccc1 (stereo partly drawn) [TDH-406, (R)-2-((4-fluorophenyl)amino)-2-oxo-1-phenylethyl 3-amino-6-(1-(1-(2-(1-(1-(3-(2,6-dioxopiperidin-3-yl)-4-oxo-3,4-dihydrobenzo[d][1,2,3]triazin-6-yl)azetidine-3-carbonyl)piperidin-4-yl)acetyl)piperidin-4-yl)-1H-pyrazol-4-yl)pyrazine-2-carboxylate]",77.69%,60.15%,6.5 nM,–,–,44.99%,39.97%
"Nc1ncc(-c2cnn(C3CCN(C(=O)CC4CCN(C(=O)C5CCN(c6ccc7nnn(C8CCC(=O)NC8=O)c(=O)c7c6)CC5)CC4)CC3)c2)nc1C(=O)O[C@@H](C(=O)Nc1ccc(F)cc1)c1ccccc1 (stereo partly drawn) [TDH-407, (R)-2-((4-fluorophenyl)amino)-2-oxo-1-phenylethyl 3-amino-6-(1-(1-(2-(1-(1-(3-(2,6-dioxopiperidin-3-yl)-4-oxo-3,4-dihydrobenzo[d][1,2,3]triazin-6-yl)piperidine-4-carbonyl)piperidin-4-yl)acetyl)piperidin-4-yl)-1H-pyrazol-4-yl)pyrazine-2-carboxylate]",83.70%,79.77%,7.5 nM,–,–,52.02%,42.95%

# The next compounds have a lower Kd [2] than those just listed; values first:
Degradation assay (Degradation %) 1 μM [1],Degradation assay (Degradation %) 10 μM [1],Kd [2],SMILES,Necroptosis inhibition assay (Rescue %) 1 μM [3],Necroptosis inhibition assay (Rescue %) 10 μM [3],Necroptosis inhibition assay (Rescue %) 1 μM ([3]; FADD−/− Jurkat cells),Necroptosis inhibition assay (Rescue %) 10 μM ([3]; FADD−/− Jurkat cells)
82.22%,74.77%,4.4 nM,"Nc1ncc(-c2cnn(C3CCN(C(=O)COC4CCN(c5ccc6c(c5)C(=O)N(C5CCC(=O)NC5=O)C6=O)CC4)CC3)c2)nc1C(=O)O[C@@H](C(=O)Nc1ccc(F)cc1)c1ccccc1 (stereo partly drawn) [TDH-400, (R)-2-((4-fluorophenyl)amino)-2-oxo-1-phenylethyl 3-amino-6-(1-(1-(2-((1-(2-(2,6-dioxopiperidin-3-yl)-1,3-dioxoisoindolin-5-yl)piperidin-4-yl)oxy)acetyl)piperidin-4-yl)-1H-pyrazol-4-yl)pyrazine-2-carboxylate]",27.80%,28.44%,–,–
70.59%,64.30%,3.2 nM,"Nc1ncc(-c2cnn(C3CCN(C(=O)CC4CCN(C(=O)CNc5ccc6nnn(C7CCC(=O)NC7=O)c(=O)c6c5)CC4)CC3)c2)nc1C(=O)O[C@@H](C(=O)Nc1ccc(F)cc1)c1ccccc1 (stereo partly drawn) [TDH-405, (R)-2-((4-fluorophenyl)amino)-2-oxo-1-phenylethyl 3-amino-6-(1-(1-(2-(1-((3-(2,6-dioxopiperidin-3-yl)-4-oxo-3,4-dihydrobenzo[d][1,2,3]triazin-6-yl)glycyl)piperidin-4-yl)acetyl)piperidin-4-yl)-1H-pyrazol-4-yl)pyrazine-2-carboxylate]",–,–,36.97%,37.28%
79.40%,83.30%,2.8 nM,"Nc1ncc(-c2cnn(C3CCN(C(=O)CC4CCN(C(=O)CCc5ccc6c(c5)C(=O)N(C5CCC(=O)NC5=O)C6=O)CC4)CC3)c2)nc1C(=O)O[C@@H](C(=O)Nc1ccc(F)cc1)c1ccccc1 (stereo partly drawn) [TDH-403, (R)-2-((4-fluorophenyl)amino)-2-oxo-1-phenylethyl 3-amino-6-(1-(1-(2-(1-(3-(2-(2,6-dioxopiperidin-3-yl)-1,3-dioxoisoindolin-5-yl)propanoyl)piperidin-4-yl)acetyl)piperidin-4-yl)-1H-pyrazol-4-yl)pyrazine-2-carboxylate]",–,–,43.50%,29.42%
45.30%,79.08%,1.1 nM,"Nc1ncc(-c2cnn(C3CCN(C(=O)CC4CCN(C(=O)CCc5cccc6c5CN(C5CCC(=O)NC5=O)C6=O)CC4)CC3)c2)nc1C(=O)O[C@@H](C(=O)Nc1ccc(F)cc1)c1ccccc1 (stereo partly drawn) [TDH-404, (R)-2-((4-fluorophenyl)amino)-2-oxo-1-phenylethyl 3-amino-6-(1-(1-(2-(1-(3-(2-(2,6-dioxopiperidin-3-yl)-1-oxoisoindolin-4-yl)propanoyl)piperidin-4-yl)acetyl)piperidin-4-yl)-1H-pyrazol-4-yl)pyrazine-2-carboxylate]",–,–,26.83%,49.11%
77.02%,44.73%,0.57 nM,"Nc1ncc(-c2cnn(C3CCN(C(=O)C4CCN(C(=O)CNc5ccc6nnn(C7CCC(=O)NC7=O)c(=O)c6c5)CC4)CC3)c2)nc1C(=O)O[C@@H](C(=O)Nc1ccc(F)cc1)c1ccccc1 (stereo partly drawn) [TDH-408, (R)-2-((4-fluorophenyl)amino)-2-oxo-1-phenylethyl 3-amino-6-(1-(1-(1-((3-(2,6-dioxopiperidin-3-yl)-4-oxo-3,4-dihydrobenzo[d][1,2,3]triazin-6-yl)glycyl)piperidine-4-carbonyl)piperidin-4-yl)-1H-pyrazol-4-yl)pyrazine-2-carboxylate]",–,–,26.68%,19.89%
